The record followed here is patent US4122184A, “Benzimidazole insecticides” (priority 1977, dated 1978).

SMILES strings stand for the structures.

One assay deals with Mexican Bean Beetle. The assay can be described thus: Mexican Bean Beetle Test. As to conditions: 48 h. Type of assay: in vivo, Epilachna varivestis (Coleoptera). As for the experimental part:
Cuttings of four six-day old Bountiful snap bean plants containing two leaves with approximately 5 square inches of leaf surface, are placed in water. The leaves are sprayed to wetting with about 5-10 ml. of a formulation containing a pre-determined level of the test compound. Half of the formulation is sprayed on the top surface and half on the bottom surface of the leaf using a DeVilbiss atomizer at 10 psi held at a distance of about 18 inches from the leaf. After the leaves have dried, they are cut from the stem and placed separately in petri dishes. Ten third instar, nonmolting Mexican bean beetle larvae grown on Bountiful snap beans are placed on each leaf. Controls consist of two leaves sprayed with 5 ml. of a 500 ppm malathion formulation (reference standard), two leaves sprayed with the formulation without the active ingredient and two leaves are held as untreated controls. After 48 hours, a mortality count is made and the amount of feeding noted. Moribund larvae are counted as dead.

The next assay concerns Southern Armyworm. Nature of the assay: Southern Armyworm Test. Type of assay: in vivo, Prodenia eridania (Lepidoptera). Conditions: 500 ppm, 48 h. As for the experimental part: Ten uniform Southern armyworm larvae about 1-1.5 cm. in length, grown on Henderson lima beans, are placed on excized bean leaves in petri dishes. The bean leaves are obtained and sprayed with the insecticide in the same way as are the snap bean leaves in the Mexican bean beetle test. The reference standards in this instance are leaves sprayed with 5 ml. 100 ppm DDT solution. Mortality counts are made 48 hours after spraying and again moribund larvae are counted as dead. Missing larvae which have probably been eaten are considered alive. The same rating scale is used as in the Mexican bean beetle test.

The next assay concerns Two-spotted Spider Mite. Nature of the assay: Two-spotted Spider Mite test. Type of assay: in vivo, Tetranychus urticae (Acarina). As to conditions: 48 h. Here is the method:
The procedure in this test is the same as that in the previous aphid test, except that about 100 two-spotted spider mites from a stock colony raised on squash plants are transferred to a cut squash cotyledon. The mortality is estimated 48 hours after spraying. The same rating scale is used.

The next assay deals with Milkweed Bug. The assay can be described thus: Milkweed Bug Test. Type of assay: in vivo, Oncopeltis fasciatus (Hemiptera). Conditions: 48 h. Here is the method:
Ten adult milkweed bugs are chilled and placed in a test cage. The cages containing the bugs are sprayed with 5 ml. of a test formulation containing a pre-determined amount of the insecticide, using a DeVilbiss atomizer at 10 psi held 33 inches from the top of the cage. After the cage has been allowed to dry, the bugs are fed and watered for 48 hours. A formulation containing 500 ppm of malathion is used as a reference standard and two unsprayed cages are kept as controls. Mortality counts are made 48 hours after spraying. Moribund adults are considered dead. The same rating scale is employed as before.

Assay [1] deals with House Fly. Nature of the assay: Housefly (Contact) Test. The format is in vivo, Musca domestica (Diptera). As to conditions: 10 ppm, 24 h. Here is the method:
Rearing cages containing four-day old adult house flies are chilled at 35°-40° F. for about 1 hour. One hundred flies are transferred from the rearing cage to each test cage using a small scoop. The caged flies are kept for 1-2 hours at 70°-80° F. The cages are sprayed in the same manner as described for the milkweed bug with 5 ml. of the test formulation. Two unsprayed cages are held as controls and two cages are sprayed with a 50 ppm DDT formulation as a reference standard. Mortality counts are made 24 hours after spraying. […] The same rating scale is employed as heretofore.

Assay [2] relates to House Fly. The assay can be described thus: Housefly (Stomach) Test. The format is in vivo, Musca domestica (Diptera). As to conditions: 100 ppm, 24 h. As for the experimental part: Ten chilled house flies are taken from the rearing cage and placed in a covered petri dish. Sugar cubes treated with 0.2 ml. of a formulation containing a specified level of the insecticide are placed in the petri dish one hour after the flies have been removed from the chill room. Controls consist of sugar cubes treated with 0.2 ml. of deionized water and cubes treated with 0.2 ml. of a formulation containing 500 ppm of malathion. Mortality counts are made 24 hours later. The same rating scale is used as before.

In a further assay the test system is Oriental Cockroach. The assay can be described thus: Oriental Roach Test. The format is in vivo, Blatta orientalis (Orthoptera). As to conditions: 500 ppm, 24 h. As for the experimental part: A rearing pan of late instar (3-4 months old) roaches is placed in a cold room for about 1 hour. Ten nymphs are taken from the pan and placed in each cage and the caged insects are kept at 70°-80° F. for 1 hour. The test cages are then sprayed in the manner indicated above in the milkweed bug test using 5 ml. of a formulation containing a specified amount of the insecticide. The test cages are held for 72 hours during which time the cockroaches are neither fed nor watered. Controls consist of 2 unsprayed cages, two cages sprayed with the formulation alone and 2 cages with a formulation containing 1000 ppm of heptachlor. Mortality counts are made 24 hours after spraying by shaking the cages lightly. All cockroaches remaining in the bottom are counted as dead.

For a further assay, the system named is Boll Weevil. Nature of the assay: Boll Weevil Test. Type of assay: in vivo, Anthonomus grandis (Coleoptera). Conditions: 48 h. The source says: The procedure is identical to that employed for the Mexican bean beetle and the Southern armyworm, except that 10 adult boll weevils are placed on cotton leaves that have been dipped into formulations of the test compounds. The same rating scale is used.

Consider `O=[N+]([O-])c1cc(C(F)F)cc2nc(C(F)(F)F)[nH]c12` [M, 2-trifluoromethyl-4-nitro-6-difluoromethylbenzimidazole], for which the mortality rating in the assay with Mexican Bean Beetle (50 ppm) is reported as 1.5; with Mexican Bean Beetle (100 ppm) it was 5.5; in the assay with Mexican Bean Beetle (500 ppm), 7.5; in the assay with Southern Armyworm, “.5”; with Two-spotted Spider Mite (100 ppm), 6.5; in the assay with Two-spotted Spider Mite (250 ppm), 8.5. The mortality rating entry is “.5” in the assay with Milkweed Bug (50 ppm); 3.5 in the assay on Milkweed Bug (100 ppm); 8.5 in the assay on House Fly [1]; 5.5 in the assay with House Fly [2]; 1.5 in the assay on Oriental Cockroach; 1.5 in the assay on Boll Weevil (50 ppm). The figures for the mortality rating in the assay with Boll Weevil (250 ppm), in the assay with Boll Weevil (500 ppm) and in the assay on Boll Weevil (1000 ppm) were 8.5, 8.5 and 7.5, respectively.
